Laboratory results as given in patent publication US20040023987A1, “Sustained release compositions” (priority 2000, published 2004).

Assay: Solubility in second solution of Japanese Pharmacopoeia (0.2 M phosphate buffer, pH approx. 6.8)
Assay type: physicochemical
Procedure: The term “solubility” used herein means concentration of drug in a supernatant which is obtained by centrifugal separation of unsolved agent, after shaking a mixture prepared by adding the agent to the second solution defined in Japanese Pharmacopoeia [0.2 M phosphate-buffer (pH approx. 6.8), for more than 30 minutes at room temperature (about 15 to about 25° C.) in a rate of more than 100 times per minutes using, for example, a Recipro shaker (model SR-I, Taiyo Scientific Industrial Co., Ltd.).

CONC(=O)Nc1ccc(-c2sc3c(c2CN(C)Cc2ccccc2)c(=O)n(-c2ccccc2)c(=O)n3Cc2c(F)cccc2F)cc1 [Reference example 7, 5-(N-Benzyl-N-methylaminomethyl)-1-(2,6-difluorobenzyl)-6-[4-(3-methoxyureido)phenyl]-3-phenylthieno[2,3-d]pyrimidine-2,4 (1H,3H)-dione]
water solubility (in words): water-insoluble or slightly water-soluble
